Legend:
hERG channel = hERG channel (Homo sapiens, UniProt Q12809); experiment: hERG electrophysiology, automated whole-cell patch clamp (Patchliner)
Experimental: CHO-K1 cells stably expressing hERG were grown in Ham's F-12 Medium with Glutamine containing 10% heat-inactivated FBS, 1% Penicillin/Streptomycin, Hygromycin (100 μg/ml) and G418 (100 μg/ml). Cells were grown in culture flasks at 37° C. in a 5% CO2-humidified incubator.
The cells were bathed in an extracellular solution containing 140 mM NaCl, 4 mM KCl, 2 mM CaCl2), 1 mM MgCl2, 5 mM Glucose, 10 mM HEPES; pH adjusted to 7.4 with NaOH; 295-305 mOsm. The internal solution contained 50 mM KCl, 10 mM NaCl, 60 mM KF, 20 mM EGTA, 10 mM HEPES; pH adjusted to 7.2 with KOH; 285 mOsm. All compounds were dissolved in DMSO at 30 mM. Compound stock solutions were freshly diluted with external solution to concentrations of 30 nM, 100 nM, 300 nM, 1 μM, 3 μM, 10 μM, 30 μM and 100 μM. The highest content of DMSO (0.3%) was present in 100 μM.
The voltage protocol (see Table B) was designed to simulate voltage changes during a cardiac action potential with a 300 ms depolarization to +20 mV (analogous to the plateau phase of the cardiac action potential), a repolarization for 300 ms to −50 mV (inducing a tail current) and a final step to the holding potential of −80 mV. The pulse frequency was 0.3 Hz. Control (compound-free) and compound pulse trains for each compound concentration applied contained 70 pulses.
Whole cell current recordings and compound application were enabled by means of an automated patch clamp platform Patchliner (Nanion). EPC 10 patch clamp amplifier (HEKA) along with Patchmaster software (HEKA Elektronik Dr. Schulze GmbH) was used for data acquisition. Data were sampled at 10 kHz without filtering. Increasing compound concentrations were applied consecutively to the same cell without washouts in between.
AUC and PEAK values were obtained with Patchmaster (HEKA Elektronik Dr. Schulze GmbH). To determine IC50 the last single pulse in the pulse train corresponding to a given compound concentration was used. Obtained AUC and PEAK values in the presence of compound were normalized to control values in the absence of compound. Using Origin (OridinLab), IC50 was derived from data fit to Hill equation: Icompound/Icontrol=(100−A)/(1+([compound]/IC50)nH)+A, where IC50 is the concentration at which current inhibition is half-maximal, [compound] is the applied compound concentration, A is the fraction of current that is not blocked and nH is the Hill coefficient.

Kv1.3 potassium channel = target: T1, Kv1.3 potassium channel (Homo sapiens, UniProt P22001); experiment: Kv1.3 potassium channel blocker activity, automated whole-cell patch clamp (Patchliner); type: cell-based; conditions: CHO-K1 cells stably expressing Kv1.3; whole cell current inhibition; read-out: Kv1.3_IC50
T1 construct: expressed in transfected cells
Outline: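 Peak-current block was recorded on stable Kv1.3 CHO-K1 cells by automated patch clamp, stepping from a −90 mV holding potential to +40 mV for 100 ms at 0.1 Hz with 10 s breaks between trains. Online P/4 leak subtraction, 10 kHz sampling; compound exposure under 10 s per train.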

T1 sequence (P22001 whole entry): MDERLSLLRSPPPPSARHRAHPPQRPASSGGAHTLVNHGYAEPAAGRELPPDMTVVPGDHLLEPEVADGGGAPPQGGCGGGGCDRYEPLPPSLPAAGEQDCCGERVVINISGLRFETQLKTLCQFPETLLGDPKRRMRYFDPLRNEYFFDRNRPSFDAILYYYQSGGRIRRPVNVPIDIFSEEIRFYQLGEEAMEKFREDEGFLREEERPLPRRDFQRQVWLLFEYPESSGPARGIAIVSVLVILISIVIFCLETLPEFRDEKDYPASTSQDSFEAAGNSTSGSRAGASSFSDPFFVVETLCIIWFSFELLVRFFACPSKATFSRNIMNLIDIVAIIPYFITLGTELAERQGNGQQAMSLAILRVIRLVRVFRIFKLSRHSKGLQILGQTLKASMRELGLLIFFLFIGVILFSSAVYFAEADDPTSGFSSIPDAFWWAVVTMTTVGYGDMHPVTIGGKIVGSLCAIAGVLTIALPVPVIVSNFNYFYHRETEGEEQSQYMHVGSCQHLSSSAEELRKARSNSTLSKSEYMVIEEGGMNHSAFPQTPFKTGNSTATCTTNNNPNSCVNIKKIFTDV
Chain of hERG channel (Q12809 whole entry): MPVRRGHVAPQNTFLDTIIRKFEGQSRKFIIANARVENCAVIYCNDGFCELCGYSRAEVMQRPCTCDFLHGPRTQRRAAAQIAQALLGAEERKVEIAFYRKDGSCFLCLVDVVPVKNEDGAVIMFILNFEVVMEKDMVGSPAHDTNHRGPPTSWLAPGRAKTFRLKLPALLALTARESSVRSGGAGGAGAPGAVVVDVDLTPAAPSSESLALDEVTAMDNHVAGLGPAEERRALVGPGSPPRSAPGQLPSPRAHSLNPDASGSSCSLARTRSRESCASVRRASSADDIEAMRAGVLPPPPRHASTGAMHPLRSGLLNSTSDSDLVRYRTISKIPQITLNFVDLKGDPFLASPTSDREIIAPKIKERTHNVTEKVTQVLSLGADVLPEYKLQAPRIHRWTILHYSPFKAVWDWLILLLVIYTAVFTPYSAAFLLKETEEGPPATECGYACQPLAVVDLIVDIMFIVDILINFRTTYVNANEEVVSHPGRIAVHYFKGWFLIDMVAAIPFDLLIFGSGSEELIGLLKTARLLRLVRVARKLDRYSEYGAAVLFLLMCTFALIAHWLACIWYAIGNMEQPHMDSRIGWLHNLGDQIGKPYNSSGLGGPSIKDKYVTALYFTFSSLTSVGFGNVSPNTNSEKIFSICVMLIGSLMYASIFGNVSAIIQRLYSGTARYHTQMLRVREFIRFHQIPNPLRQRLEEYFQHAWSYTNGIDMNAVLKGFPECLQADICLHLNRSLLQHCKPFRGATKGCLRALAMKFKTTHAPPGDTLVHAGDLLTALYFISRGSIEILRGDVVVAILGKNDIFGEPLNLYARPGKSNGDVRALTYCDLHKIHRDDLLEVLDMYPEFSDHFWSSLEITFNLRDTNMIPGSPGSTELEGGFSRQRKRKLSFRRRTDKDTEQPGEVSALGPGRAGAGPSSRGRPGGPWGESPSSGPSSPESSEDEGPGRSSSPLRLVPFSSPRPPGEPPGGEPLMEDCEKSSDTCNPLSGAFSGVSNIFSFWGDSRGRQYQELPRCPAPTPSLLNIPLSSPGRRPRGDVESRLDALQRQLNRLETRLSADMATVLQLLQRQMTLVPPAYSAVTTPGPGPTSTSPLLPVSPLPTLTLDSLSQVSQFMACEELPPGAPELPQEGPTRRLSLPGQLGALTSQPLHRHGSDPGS

SMILES	IC50 (hERG channel) [µM]	IC50 (Kv1.3 potassium channel) [µM]
C[C@@H](O)[C@@H](O)C(=O)N1CCC([C@@H](N)c2cc(Cl)c(Cl)cc2O)CC1 (mixture of isomers) [Compound 281, 1-[4-[(R)-amino(4,5-dichloro-2-hydroxyphenyl)methyl]piperidin-1-yl]-(2R,3R)-rel-dihydroxybutan-1-one trifluoro-acetic acid]	> 30	< 0.5
Oc1cc(Cl)c(Cl)cc1[C@@H](O)C1CCNCC1 (single isomer, unassigned) [Compound 6]	> 30	< 10
Oc1cc(Cl)c(Cl)cc1[C@H](O)C1CCNCC1 (single isomer, unassigned) [Compound 7]	> 30	< 10
CC(=O)N[C@H](c1cc(Cl)c(Cl)cc1O)C1CCNCC1 (single isomer, unassigned) [Compound 10]	> 30	< 10
N[C@@H](c1cc(Cl)c(Cl)cc1O)C1CCNCC1 (single isomer, unassigned) [Compound 16, Trifluoroacetic Acid]	> 30	< 0.5
CC(=O)N1CCC([C@H](N)c2cc(Cl)c(Cl)cc2O)CC1 (single isomer, unassigned) [Compound 19]	< 30	< 10
CC(=O)N1CCC([C@@H](N)c2cc(Cl)c(Cl)cc2O)CC1 (single isomer, unassigned) [Compound 20]	< 30	< 0.5
N[C@H](c1c(O)cc(Cl)c(Cl)c1Cl)C1CCNCC1 (single isomer, unassigned) [Compound 60, Trifluoroacetic Acid]	> 30	< 30
N[C@@H](c1c(O)cc(Cl)c(Cl)c1Cl)C1CCNCC1 (single isomer, unassigned) [Compound 61, Trifluoroacetic Acid]	> 30	< 10
C[C@@H](N)C(=O)N1CCC([C@@H](N)c2cc(Cl)c(Cl)cc2O)CC1 (single isomer, unassigned) [Compound 69]	> 30	< 0.5
C[C@H](N)C(=O)N1CCC([C@H](N)c2cc(Cl)c(Cl)cc2O)CC1 (single isomer, unassigned) [Compound 75]	> 30	< 10
C[C@H](N)C(=O)N1CCC([C@@H](N)c2cc(Cl)c(Cl)cc2O)CC1 (single isomer, unassigned) [Compound 76]	> 30	< 0.5
N[C@@H](c1cc(Cl)c(Cl)cc1O)C1CCN(C(=O)[C@@H]2CCNC2)CC1 (single isomer, unassigned) [Compound 80]	> 30	< 0.5
NC(=O)N1CCC([C@H](N)c2cc(Cl)c(Cl)cc2O)CC1 (single isomer, unassigned) [Compound 81]	> 30	< 0.5
NC(=O)N1CCC([C@@H](N)c2cc(Cl)c(Cl)cc2O)CC1 (single isomer, unassigned) [Compound 82]	> 30	< 10
N[C@@H](c1cc(Cl)c(Cl)cc1O)C1CCN(C(=O)[C@H]2CCNC2)CC1 (single isomer, unassigned) [Compound 85]	> 30	< 0.5
O=C([C@@H]1CCNC1)N1CCC([C@H](O)c2cc(Cl)c(Cl)cc2O)CC1 (single isomer, unassigned) [Compound 115]	> 30	< 0.5
O=C([C@@H]1CCNC1)N1CCC([C@@H](O)c2cc(Cl)c(Cl)cc2O)CC1 (single isomer, unassigned) [Compound 116]	> 30	< 0.5
N[C@@H](c1cc(Cl)c(Cl)cc1O)C1CCN(C(=O)[C@H](O)CO)CC1 (single isomer, unassigned) [Compound 119]	> 30	< 0.5
N[C@@H](c1cc(Cl)c(Cl)cc1O)C1CCN(C(=O)[C@@H](O)CO)CC1 (single isomer, unassigned) [Compound 120]	> 30	< 0.5
O=C([C@@H]1CCNC1)N1CCC([C@@H](O)c2c(O)ccc(Cl)c2Cl)CC1 (single isomer, unassigned) [Compound 123, Trifluoroacetic Acid]	> 30	< 0.5
N[C@@H](c1cc(Cl)c(Cl)cc1O)[C@H]1CCNC1 (single isomer, unassigned; diastereoisomer 1) [Compound 32, 2-(amino(pyrrolidin-3-yl)methyl)-4,5-dichlorophenol Trifluoroacetic Acid Diastereoisomer 1]	> 30	< 10

SMILES	IC50 (hERG channel) [µM]	IC50 (Kv1.3 potassium channel) [µM]
N[C@@H](c1cc(Cl)c(Cl)cc1O)[C@@H]1CCNC1 (single isomer, unassigned; diastereoisomer 2) [Compound 33, 2-(amino(pyrrolidin-3-yl)methyl)-4,5-dichlorophenol Trifluoroacetic Acid Diastereoisomer 2]	> 30	< 10
N[C@@H](c1cc(Cl)c(Cl)cc1O)[C@@H]1CCC(=O)NC1 (single isomer, unassigned; diastereoisomer 2) [Compound 39, 5-(amino(4,5-dichloro-2-hydroxyphenyl)methyl)piperidin-2-one Diastereoisomer 2]	> 30	< 10
N[C@@H](c1cc(Cl)c(Cl)cc1O)C1CCN(S(=O)(=O)[C@@H]2CCNC2)CC1 (single isomer, unassigned; isomer 1) [Compound 112]	> 30	< 0.5
N[C@@H](c1cc(Cl)c(Cl)cc1O)C1CCN(C(=O)[C@H]2CC[C@H](O)C2)CC1 (single isomer, unassigned; isomer 1) [Compound 177]	< 30	< 10
C[C@@](O)(CO)C(=O)N1CCC([C@@H](N)c2cc(Cl)c(Cl)cc2O)CC1 (single isomer, unassigned; isomer 1) [Compound 217]	> 30	< 10
N[C@@H](c1cc(Cl)c(Cl)cc1O)C1CCN(C(=O)[C@H]2CCC(=O)NC2)CC1 (single isomer, unassigned; isomer 1) [Compound 221]	> 30	< 0.5
N[C@@H](c1cc(Cl)c(Cl)cc1O)C1CCN(C(=O)[C@@H]2CNC(=O)C2)CC1 (single isomer, unassigned; isomer 1) [Compound 296]	> 30	< 0.5
CC1CN(C(=O)[C@H](O)CO)CCC1[C@@H](N)c1cc(Cl)c(Cl)cc1O (single isomer, unassigned; isomer 1) [Compound 331]	> 30	< 0.5
N[C@@H](c1cc(Cl)c(Cl)cc1O)C1CCN(C(=O)[C@H]2CNC(=O)OC2)CC1 (single isomer, unassigned; isomer 1) [Compound 338]	> 30	< 0.5
N[C@@H](c1cc(Cl)c(Cl)cc1O)C1CCN(S(=O)(=O)[C@H]2CCNC2)CC1 (single isomer, unassigned; isomer 2) [Compound 118]	> 30	< 0.5
N[C@@H](c1cc(Cl)c(Cl)cc1O)C1CCN(C(=O)[C@@H]2CC[C@H](O)C2)CC1 (single isomer, unassigned; isomer 2) [Compound 179]	< 30	< 0.5
N[C@@H](c1cc(Cl)c(Cl)cc1O)C1CCN(C(=O)[C@@H]2CNC(=O)OC2)CC1 (single isomer, unassigned; isomer 2) [Compound 210]	> 30	< 0.5
C[C@](O)(CO)C(=O)N1CCC([C@@H](N)c2cc(Cl)c(Cl)cc2O)CC1 (single isomer, unassigned; isomer 2) [Compound 218]	> 30	< 10
N[C@@H](c1cc(Cl)c(Cl)cc1O)C1CCN(C(=O)[C@@H]2CCC(=O)NC2)CC1 (single isomer, unassigned; isomer 2) [Compound 222]	> 30	< 0.5
N[C@@H](c1cc(Cl)c(Cl)cc1O)C1CCN(C(=O)[C@H]2CNC(=O)C2)CC1 (single isomer, unassigned; isomer 2) [Compound 246]	> 30	< 0.5
N[C@@H](c1cc(Cl)c(Cl)cc1O)C1CCN(C(=O)[C@H]2CNC(=O)CO2)CC1 (single isomer, unassigned; isomer 2) [Compound 276]	> 30	< 0.5
C[C@H]1CN(C(=O)[C@H](O)CO)CC[C@H]1[C@@H](N)c1cc(Cl)c(Cl)cc1O (single isomer, unassigned; isomer 2) [Compound 332]	> 30	< 0.5
Cc1cc(O)c([C@H](N)C2CCN(C(=O)c3c[nH]c(=O)c4ccccc34)CC2)cc1Cl [Compound 325, 4-[4-[(R)-amino (5-chloro-2-hydroxy-4-methylphenyl)methyl]piperidine-1-carbonyl]-2H-isoquinolin-1-one trifluoroacetic acid]	–	< 0.5
N[C@@H](c1cc(Cl)c(Cl)cc1O)[C@@H]1CCCN(C(=O)[C@H](O)CO)C1 [Compound 329, (2R)-1-[(3R)-3-[(R)-amino(4,5-dichloro-2-hydroxyphenyl)methyl]piperidin-1-yl]-2,3-dihydroxypropan-1-one Trifluoroacetic Acid]	–	< 10
N[C@H](c1cc(Cl)c(Cl)cc1O)[C@@H]1CCCN(C(=O)[C@H](O)CO)C1 [Compound 330, (2R)-1-[(3R)-3-[(S)-amino(4,5-dichloro-2-hydroxyphenyl)methyl]piperidin-1-yl]-2,3-dihydroxypropan-1-one Trifluoroacetic Acid]	–	> 10
CN[C@@H](c1cc(Cl)c(Cl)cc1O)C1CCN(C(=O)[C@H](O)CO)CC1 [Compound 337, (2R)-1-[4-[(R)-(4,5-dichloro-2-hydroxyphenyl)(methylamino)methyl]piperidin-1-yl]-2,3-dihydroxypropan-1-one]	–	< 10

— patent US20230023559A1, “ARYLMETHYLENE HETEROCYCLIC COMPOUNDS AS KV1.3 POTASSIUM SHAKER CHANNEL BLOCKERS” (D. E. Shaw Research, LLC, priority 2019, published 2023)
